Results taken from patent publication US12404252B2, “Salt of 2-amino-2-(2-(1-decyl-1H-1,2,3-triazol-4-yl)ethyl)propane-1,3-diol, and pharmaceutical composition containing same” (NEXTGEN BIOSCIENCE CO., LTD, priority 2021, dated 2025).
Values joined by “and” are separate entries in the source; they are usually repeats but may differ in a detail not shown here. Equal entries are not always repeated. “Also recorded” adds a separate entry of the source.

Key:
[1] = test system: T cells, CD4 T cells, and CD8 T cells; test: Inhibitory effect against mouse immune cells (FACS after oral administration); assay type: in vivo; conditions: mice, oral 3 mg/kg
Experimental: In order to examine whether Compound 1, which acts on the S1P receptor, also is effective in reducing lymphocytes, the effect of Compound 1 on immune cells was evaluated. After oral administration of Compound 1 to mice at 3 mg/kg/day, changes in lymphocytes in peripheral blood (PB) and bone marrow (BM) were classified into T cells, CD4 T cells, and CD8 T cells. FACS analysis was performed 0, 4, 8, 12, 24, and 36 hours after administration of the test substance. Cell number was measured and expressed as a percentage relative to that at time 0 (% of control).

[2] = Standard stock solution stability, 40° C./75±5% RH; assay type: physicochemical; conditions: 40° C./75% RH
Experimental: The stability of the crystalline compound was examined at 40° C./75±5% RH. Physical stability was examined through comparative XRPD analysis before and after the test, and chemical stability was examined by HPLC method. The experimental conditions used in the stability test for Compound 1a and the test results are as follows.
40° C./75±5% RH: Conditions in which the vial was open and upright.
(§1) A required amount (˜1 mg) of solid material was dissolved in 1 mL of a diluent (1:1 methanol/water), and the prepared solution was analyzed by HPLC.

[3] = Standard stock solution stability, 60° C./75±5% RH; assay type: physicochemical; conditions: 60° C./75% RH, Initial
Experimental: The stability of the crystalline compound was under 60° C./75±5% RH conditions, and the purity thereof was examined by HPLC method. The experimental conditions used in the stability test for Compound 1a and the test results are as follows.
60° C./75±5% RH: Conditions in which the vial was open and upright.
as §1

[4] = test system: adenine-induced chronic kidney disease model; test: Adenine-induced chronic kidney disease model; assay type: in vivo; conditions: adenine-induced CKD mice, 3 weeks
Experimental: The antifibrotic effect of Compound 1a was evaluated using an adenine-induced chronic kidney disease model. 0.5% adenine (in 0.5% CMC) was orally administered to mice for 4 weeks to induce chronic kidney disease, and Compound 1a at 10, 30, and 90 mg/kg/day and the positive control substance telmisartan 10 mg/kg/day were administered orally to the mice for 3 weeks, followed by measurement of serum creatinine, serum BUN, and kidney hydroxyproline, and histopathology. In addition, the tubular-interstitial index value was determined based on the above measurement results.

[5] = test system: dextran sulfate sodium (DSS)-induced colitis model; test: DSS-induced colitis mouse model, disease activity index; assay type: in vivo; conditions: DSS mice
Experimental: The effectiveness of Compound 1a against inflammatory bowel disease was evaluated using the dextran sulfate sodium (DSS)-induced colitis model. In the mouse model, inflammatory bowel disease was induced by administering DSS to mice at a concentration of 2.5% via drinking water. Mice were divided into a test group administered Compound 1a, a positive control group administered ozanimod or MTX (methotrexate), a vehicle group, and a normal control group, and each group had n=10. Compound 1, a compound of the present invention, was orally administered at doses of 5 and 10 mg/kg once a day for 7 days to the inflammatory bowel disease-induced model, and ozanimod as a positive control was administered orally at a dose of 5 mg/kg once a day, and MTX (methotrexate) as a positive control was administered intraperitoneally at a dose of 3 mg/kg three times a week.
DAI represents the total score of weight loss relative to initial weight, stool consistency, and degree of intestinal bleeding of the mouse. The criteria for calculation of DAI are shown in Table 10 below, and DAI was evaluated on days 0, 1, 2, 3, 4, 5, 6, 7, and 8.

[6] = Effect on cardiovascular system in beagle dogs (telemetry); assay type: in vivo; conditions: oral 12.5, 25, and 50 mg/kg
Experimental: Compound 1a was orally administered to four non-anesthetized and unrestrained male beagle dogs implanted with remote transmitters. Next, the heart rates of the four beagle dogs were measured to evaluate the effect of Compound 1a on the cardiovascular system, and whether abnormal symptoms occurred was visually checked.
In this experiment, the test substance was administered to each of the four beagle dogs in four steps. In the first administration step (0 mg/kg of Compound 1a), 0.5% MC aqueous solution as control vehicle was administered, and in the second administration step, 12.5 mg/kg of Compound 1a was administered. In the third administration step, 25 mg/kg of Compound 1a was administered, and in the fourth administration step, 50 mg/kg of Compound 1a was administered. The first to fourth administrations were performed at one-week intervals. Additionally, 0 hour before administration of the test substance, and 0.5 hours, 1 hour, 2 hours, 3 hours, 4 hours, 6 hours, 8 hours, 12 hours, and 24 hours after administration of the test substance, the heart rates of the beagle dogs were measured.

For CCCCCCCCCCn1cc(CCC(N)(CO)CO)nn1 [Compound 1a, 2-amino-2-(2-(1-decyl-1H-1,2,3-triazol-4-yl)ethyl) propane-1,3-diol], the “CD4 T cells in peripheral blood, relative to time 0 (% of control)” value ([1]; 4 hours) was 16.4% and 17.6%, the “CD8 T cells in peripheral blood, relative to time 0 (% of control)” value ([1]; 4 hours) was 5.9% and 9.3% and the “T cells in peripheral blood, relative to time 0 (% of control)” value ([1]; 4 hours) was 40.6% and 41.6%. For the same compound, the “T-cell distribution in bone marrow (BM), % of control” value ([1]; 4 hours) was 135% and 120%, the “T-cell distribution in bone marrow (BM), % of control” value ([1]; 24 hours) was 131% and 118% and the Purity % ([2]; 1-week) was 99.18%. The “XRPD (physical stability)” value ([2]; 1-week) was “Almost similar (some changes”, the “XRPD (physical stability)” value ([2]; 2-week) was “crystalline form was maintained; also recorded: Almost similar (some changes” and the Purity % ([2]; Initial) was 99.29%. The “XRPD (physical stability)” value ([2]; Initial) was “Crystalline”, the Purity % [3] was 99.11% and the “kidney hydroxyproline level compared to control group” value ([4]; 30 mg/kg/day orally) was “statistically significantly decreased”. The “kidney fibrosis (tubular-interstitial index)” value ([4]; 90 mg/kg/day orally) was “statistically significantly decreased”, the “serum BUN level” value ([4]; 90 mg/kg/day orally) was 157.4 ± 32.3 mg/dL and the serum creatinine level ([4]; 90 mg/kg/day orally) was 0.90 ± 0.12 mg/dL. The “clinical indicators (weight loss, stool consistency, intestinal bleeding) versus ozanimod” value ([5]; 5 mg/kg orally) was “equivalent to or higher than those of ozanimod”, the “clinical indicators (weight loss, stool consistency, intestinal bleeding) versus ozanimod” value ([5]; 10 mg/kg orally) was “equivalent to or higher than those of ozanimod” and the “general symptoms (visual observation)” value [6] was “no abnormal symptoms were observed”. The heart rate ([6]; up to 24 hours) was “no change in the heart rate”.
